These compounds were tested on Influenza A/WSN/33-Luciferase virus (assay: microbe, parasite or virus in culture). Details: A549, 72 h, luciferase signal three days later, read-out: IC50 antiviral activity (Luciferase reporter assay).
Assay type: cell-based

Row | Compound | IC50 [nM]
1 | COC(=O)CCCn1cc(Cl)cc(Nc2nn(-c3ccc(OC(F)(F)F)cc3)c(=O)c3c2CCC3)c1=O [Example 37, methyl 4-[5-chloro-2-oxo-3-[[4-oxo-3-[4-(trifluoromethoxy)phenyl]-6,7-dihydro-5H-cyclopenta[d]pyridazin-1-yl]amino]-1-pyridyl]butanoate] | 20
2 | COC(=O)CCCn1cccc(Nc2nn(-c3ccc(OC(F)(F)F)cc3)c(=O)c3c2CCC3)c1=O [Example 38, methyl 4-[2-oxo-3-[[4-oxo-3-[4-(trifluoromethoxy)phenyl]-6,7-dihydro-5H-cyclopenta[d]pyridazin-1-yl]amino]-1-pyridyl]butanoate] | 23
3 | CCOC(=O)COCCn1cccc(Nc2nn(-c3ccc(OC(F)(F)F)cc3)c(=O)c3c2CCC3)c1=O [Example 39, ethyl 2-[2-[2-oxo-3-[[4-oxo-3-[4-(trifluoromethoxy)phenyl]-6,7-dihydro-5H-cyclopenta[d]pyridazin-1-yl]amino]-1-pyridyl]ethoxy]acetate] | 230
4 | O=c1c(Nc2nn(-c3ccc(OC(F)(F)F)cc3)c(=O)c3c2CCC3)cccn1CCn1ccnc1 [Example 40, 1-[[1-(2-imidazol-1-ylethyl)-2-oxo-3-pyridyl]amino]-3-[4-(trifluoromethoxy)phenyl]-6,7-dihydro-5H-cyclopenta[d]pyridazin-4-one] | 100
5 | CCOC(=O)C1CN(CCn2cccc(Nc3nn(-c4ccc(OC(F)(F)F)cc4)c(=O)c4c3CCC4)c2=O)CCO1 (centres unmarked) [Example 41, ethyl 4-[2-[2-oxo-3-[[4-oxo-3-[4-(trifluoromethoxy)phenyl]-6,7-dihydro-5H-cyclopenta[d]pyridazin-1-yl]amino]-1-pyridyl]ethyl]morpholine-2-carboxylate] | 60
6 | COC1CCN(CCn2cccc(Nc3nn(-c4ccc(OC(F)(F)F)cc4)c(=O)c4c3CCC4)c2=O)C1 (centres unmarked) [Example 42, 1-[[1-[2-(3-methoxypyrrolidin-1-yl)ethyl]-2-oxo-3-pyridyl]amino]-3-[4-(trifluoromethoxy)phenyl]-6,7-dihydro-5H-cyclopenta[d]pyridazin-4-one] | 40
7 | CC(C)(C)OC(=O)N(CCn1cccc(Nc2nn(-c3ccc(OC(F)(F)F)cc3)c(=O)c3c2CCC3)c1=O)CC(=O)O [Example 43, 2-[tert-butoxycarbonyl-[2-[2-oxo-3-[[4-oxo-3-[4-(trifluoromethoxy)phenyl]-6,7-dihydro-5H-cyclopenta[d]pyridazin-1-yl]amino]-1-pyridyl]ethyl]amino]acetic acid] | 84
8 | O=c1c(Nc2nn(-c3ccc(OC(F)(F)F)cc3)c(=O)c3c2CCC3)cccn1CCCN1CCOCC1 [Example 44, 1-[[1-(3-morpholinopropyl)-2-oxo-3-pyridyl]amino]-3-[4-(trifluoromethoxy)phenyl]-6,7-dihydro-5H-cyclopenta[d]pyridazin-4-one] | 28
9 | CC(C)(C)OC(=O)NCCn1cccc(Nc2nn(-c3ccc(OC(F)(F)F)cc3)c(=O)c3c2CCC3)c1=O [Example 45, tert-butyl N-[2-[2-oxo-3-[[4-oxo-3-[4-(trifluoromethoxy)phenyl]-6,7-dihydro-5H-cyclopenta[d]pyridazin-1-yl]amino]-1-pyridyl]ethyl]carbamate] | 286
10 | O=c1c(Nc2nn(-c3ccc(OC(F)(F)F)cc3)c(=O)c3c2CCC3)cccn1CCN1CC(O)C1 [Example 46, 1-[[1-[2-(3-hydroxyazetidin-1-yl)ethyl]-2-oxo-3-pyridyl]amino]-3-[4-(trifluoromethoxy)phenyl]-6,7-dihydro-5H-cyclopenta[d]pyridazin-4-one] | 33
11 | O=c1c(Nc2nn(-c3ccc(OC(F)(F)F)cc3)c(=O)c3c2CCC3)cncn1CCO [Example 47, 1-[[1-(2-hydroxyethyl)-6-oxo-pyrimidin-5-yl]amino]-3-[4-(trifluoromethoxy)phenyl]-6,7-dihydro-5H-cyclopenta[d]pyridazin-4-one] | 71
12 | CN1CCN(CCCn2cccc(Nc3nn(-c4ccc(OC(F)(F)F)cc4)c(=O)c4c3CCC4)c2=O)CC1 [Example 48, 1-[[1-[3-(4-methylpiperazin-1-yl)propyl]-2-oxo-3-pyridyl]amino]-3-[4-(trifluoromethoxy)phenyl]-6,7-dihydro-5H-cyclopenta[d]pyridazin-4-one] | 18
13 | O=c1c(Nc2nn(-c3ccc(OC(F)(F)F)cc3)c(=O)c3c2CCC3)cccn1CCCO [Example 49, 1-[[1-(3-hydroxypropyl)-2-oxo-3-pyridyl]amino]-3-[4-(trifluoromethoxy)phenyl]-6,7-dihydro-5H-cyclopenta[d]pyridazin-4-one] | 16
14 | CN(C)CCn1cncc(Nc2nn(-c3ccc(OC(F)(F)F)cc3)c(=O)c3c2CCC3)c1=O [Example 50, 1-[[1-[2-(dimethylamino)ethyl]-6-oxo-pyrimidin-5-yl]amino]-3-[4-(trifluoromethoxy)phenyl]-6,7-dihydro-5H-cyclopenta[d]pyridazin-4-one] | 28
15 | CCN(CC)CCn1cncc(Nc2nn(-c3ccc(OC(F)(F)F)cc3)c(=O)c3c2CCC3)c1=O [Example 51, 1-[[1-[2-(diethylamino)ethyl]-6-oxo-pyrimidin-5-yl]amino]-3-[4-(trifluoromethoxy)phenyl]-6,7-dihydro-5H-cyclopenta[d]pyridazin-4-one] | 44
16 | O=c1c(Nc2nn(-c3ccc(OC(F)(F)F)cc3)c(=O)c3c2CCC3)cncn1CCN1CCCC1 [Example 52, 1-[[6-oxo-1-(2-pyrrolidin-1-ylethyl)pyrimidin-5-yl]amino]-3-[4-(trifluoromethoxy)phenyl]-6,7-dihydro-5H-cyclopenta[d]pyridazin-4-one] | 62

Row | Compound | IC50 [nM]
17 | Cn1cccc(Nc2nn(-c3ccc(C(C)(C)C)cc3F)c(=O)c3c2CCC3)c1=O [Example 53, 3-(4-tert-butyl-2-fluoro-phenyl)-1-[(1-methyl-2-oxo-3-pyridyl)amino]-6,7-dihydro-5H-cyclopenta[d]pyridazin-4-one] | 24
18 | Cn1cccc(Nc2nn(-c3ccc(C(F)(F)F)cc3F)c(=O)c3c2CCC3)c1=O [Example 54, 3-[2-fluoro-4-(trifluoromethyl)phenyl]-1-[(1-methyl-2-oxo-3-pyridyl)amino]-6,7-dihydro-5H-cyclopenta[d]pyridazin-4-one] | 52
19 | CCOc1ccc(-n2nc(Nc3cccn(C)c3=O)c3c(c2=O)CCC3)cn1 [Example 55, 3-(6-ethoxy-3-pyridyl)-1-[(1-methyl-2-oxo-3-pyridyl)amino]-6,7-dihydro-5H-cyclopenta[d]pyridazin-4-one] | 303
20 | COc1ccc(-n2nc(Nc3cccn(C)c3=O)c3c(c2=O)CCC3)cn1 [Example 56, 3-(6-methoxy-3-pyridyl)-1-[(1-methyl-2-oxo-3-pyridyl)amino]-6,7-dihydro-5H-cyclopenta[d]pyridazin-4-one] | 278
21 | COc1ccc(-n2nc(Nc3cc(F)cn(C)c3=O)c3c(c2=O)CCC3)cn1 [Example 57, 1-[(5-fluoro-1-methyl-2-oxo-3-pyridyl)amino]-3-(6-methoxy-3-pyridyl)-6,7-dihydro-5H-cyclopenta[d]pyridazin-4-one] | 352
22 | Cn1cccc(Nc2nn(-c3ccc(C(C)(C)C)nc3)c(=O)c3c2CCC3)c1=O [Example 58, 3-(6-tert-butyl-3-pyridyl)-1-[(1-methyl-2-oxo-3-pyridyl)amino]-6,7-dihydro-5H-cyclopenta[d]pyridazin-4-one] | 17
23 | Cn1cccc(Nc2nn(-c3ccc(OC(F)F)cc3)c(=O)c3c2CCC3)c1=O [Example 59, 3-[4-(difluoromethoxy)phenyl]-1-[(1-methyl-2-oxo-3-pyridyl)amino]-6,7-dihydro-5H-cyclopenta[d]pyridazin-4-one] | 137
24 | Cn1cccc(Nc2nn(-c3ccc(C(F)(F)F)cc3)c(=O)c3c2CCC3)c1=O [Example 60, 1-[(1-methyl-2-oxo-3-pyridyl)amino]-3-[4-(trifluoromethyl)phenyl]-6,7-dihydro-5H-cyclopenta[d]pyridazin-4-one] | 11
25 | Cn1cccc(Nc2nn(-c3ccc(OC(F)(F)F)cc3)c(=O)c3c2CC(C)(C)C3)c1=O [Example 61, 6,6-dimethyl-1-[(1-methyl-2-oxo-3-pyridyl)amino]-3-[4-(trifluoromethoxy)phenyl]-5,7-dihydrocyclopenta[d]pyridazin-4-one] | 60
26 | Cn1cccc(Nc2nn(-c3ccc(OC(F)(F)F)cc3)c(=O)c3c2CCOC3)c1=O [Example 62, 1-[(1-methyl-2-oxo-3-pyridyl)amino]-3-[4-(trifluoromethoxy)phenyl]-7,8-dihydro-5H-pyrano[3,4-d]pyridazin-4-one] | 186
27 | Cn1cccc(Nc2nn(-c3ccc(OC(F)(F)F)cc3)c(=O)c3c2COCC3)c1=O [Example 63, 4-[(1-methyl-2-oxo-3-pyridyl)amino]-2-[4-(trifluoromethoxy)phenyl]-7,8-dihydro-5H-pyrano[3,4-d]pyridazin-1-one] | 33
28 | Cc1ccc(Nc2nn(-c3ccc(OC(F)(F)F)cc3)c(=O)c3ccccc23)c(=O)n1C [Example 64, 4-[(1,6-dimethyl-2-oxo-3-pyridyl)amino]-2-[4-(trifluoromethoxy)phenyl]phthalazin-1-one] | 355
29 | Cc1ncc(Nc2nn(-c3ccc(OC(F)(F)F)cc3)c(=O)c3ccccc23)c(=O)[nH]1 [Example 65, 4-[(2-methyl-6-oxo-1H-pyrimidin-5-yl)amino]-2-[4-(trifluoromethoxy)phenyl]phthalazin-1-one] | 405
30 | Cn1cncc(Nc2nn(-c3ccc(OC(F)(F)F)cc3)c(=O)c3ccccc23)c1=O [Example 66, 4-[(1-methyl-6-oxo-pyrimidin-5-yl)amino]-2-[4-(trifluoromethoxy)phenyl]phthalazin-1-one] | 36
31 | CCc1cc(Nc2nn(-c3ccc(OC(F)(F)F)cc3)c(=O)c3ccccc23)c(=O)n(C)c1 [Example 67, 4-[(5-ethyl-1-methyl-2-oxo-3-pyridyl)amino]-2-[4-(trifluoromethoxy)phenyl]phthalazin-1-one] | 563
32 | Cc1ccc(Nc2nn(-c3ccc(OC(F)(F)F)cc3)c(=O)c3ccccc23)c(=O)[nH]1 [Example 68, 4-[(6-methyl-2-oxo-1H-pyridin-3-yl)amino]-2-[4-(trifluoromethoxy)phenyl]phthalazin-1-one] | 1710
